Laboratory results reported in the supplement of paper PMC11208160.

Test: recombinant UMI read abundance after kanamycin selection (control-corrected) (log10(CPM+1)); higher = more efficient recombination; extreme values may be limits of the assay; sequences stand for … in AGTGCAGAGAAAATCGGCCAGTTTTCTCTGCCTGCAGTCCGCATGCCGTGGGACCCCTTGGGTTCTAACCTGTTGCCTAGATTTATGCAGCGGACTGCCTTTCTCCCAAAGTGATAAACCGG…AGGTTGGTTTCACT; site = the 11-nt donor
Method in brief: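 Two replicates each of selected and unselected plating were used in this pooled Escherichia coli screen of donor and donor-binding-loop pairs for the IS621 bridge recombinase. Selection was with IPTG (0.07 mM) and kanamycin. Counts of recombinant UMIs, amplified across the donor–target junction, were converted to CPM, averaged, scaled by control-derived factors and reported as log10(CPM+1).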
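Also: IS621 bridge recombinase in Escherichia coli cells against a fixed T5 target plasmid.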

Row | Sequence | recombinant UMI read abundance (log10)
1 | CCCGGTCCATGGACCGGTTTTCCCGGTAATCCGTATTTGCG (site CCCGGTCCTGG) | 0
2 | CCCGGTCCATGGACCGGTTTTCCCGGTAATCCGTATTTGCG (site CCCGGTCCTTG) | 0
3 | CCCGGTCCATGGACCGGTTTTCCCGGTAATCCGTATTTGGA (site CCCGGTCCTTA) | 0.00376
4 | CCCGGTCCATGGACCGGTTTTCCCGGTAATCCGTATTTGGA (site CCCGGTCCTTC) | 0.0256
5 | CCCGGTCCATGGACCGGTTTTCCCGGTAATCCGTATTTGGA (site CCCGGTCCTTG) | 0
6 | CCCGGTCCATGGACCGGTTTTCCCGGTAATCCGTATTTGGA (site CCCGGTCCTTT) | 0.0436
7 | CCCGGTTCATGGACCGGTTTTCCCGGTAATCCGTATTTGCT (site CCCGGTTCTAG) | 0
8 | CCCTATCCATGGACCGGTTTTCCCGGTAATCCGTATTTGCC (site CCCTAACCTGG) | 0
9 | CCCTATCCATGGACCGGTTTTCCCGGTAATCCGTATTTGCC (site CCCTACCCTGG) | 0
10 | CCCTATCCATGGACCGGTTTTCCCGGTAATCCGTATTTGCC (site CCCTAGCCTGG) | 0
11 | CCCTATCCATGGACCGGTTTTCCCGGTAATCCGTATTTGCC (site CCCTATCCTGG) | 0.417
12 | CCCTGCTCATGGACCGGTTTTCCCGGTAATCCGTATTTGGG (site CCCTACTCTCC) | 0.174
13 | CCCTGCTCATGGACCGGTTTTCCCGGTAATCCGTATTTGGG (site CCCTCCTCTCC) | 0.027
14 | CCCTGCTCATGGACCGGTTTTCCCGGTAATCCGTATTTGGG (site CCCTGCTCTCC) | 0.409
15 | CCCTGCTCATGGACCGGTTTTCCCGGTAATCCGTATTTGGG (site CCCTTCTCTCC) | 0.018
16 | CCCTGGCCATGGACCGGTTTTCCCGGTAATCCGTATTTGCC (site CCCTAGCCTGG) | 0
17 | CCCTGGCCATGGACCGGTTTTCCCGGTAATCCGTATTTGCC (site CCCTCGCCTGG) | 0
18 | CCCTGGCCATGGACCGGTTTTCCCGGTAATCCGTATTTGCC (site CCCTGGCCTGG) | 0
19 | CCCTGGCCATGGACCGGTTTTCCCGGTAATCCGTATTTGCC (site CCCTTGCCTGG) | 0
20 | CCCTTCACATGGACCGGTTTTCCCGGTAATCCGTATTTGGG (site CCCTTCACTCC) | 0.004
21 | CCCTTCACATGGACCGGTTTTCCCGGTAATCCGTATTTGGG (site CCCTTCCCTCC) | 0.0128
22 | CCCTTCACATGGACCGGTTTTCCCGGTAATCCGTATTTGGG (site CCCTTCGCTCC) | 0.0224
23 | CCCTTCACATGGACCGGTTTTCCCGGTAATCCGTATTTGGG (site CCCTTCTCTCC) | 0.0124
24 | CCCTTCCCATGGACCGGTTTTCCCGGTAATCCGTATTTGGG (site CCCTTCACTCC) | 0.0226
25 | CCCTTCCCATGGACCGGTTTTCCCGGTAATCCGTATTTGGG (site CCCTTCCCTCC) | 0.00862

Row | Sequence | recombinant UMI read abundance (log10)
26 | CCCTTCCCATGGACCGGTTTTCCCGGTAATCCGTATTTGGG (site CCCTTCGCTCC) | 0.00355
27 | CCCTTCCCATGGACCGGTTTTCCCGGTAATCCGTATTTGGG (site CCCTTCTCTCC) | 0.0121
28 | CCCTTCTCATGGACCGGTTTTCCCGGTAATCCGTATTTGGC (site CCCTTCTCTAC) | 0.0232
29 | CCCTTCTCATGGACCGGTTTTCCCGGTAATCCGTATTTGGC (site CCCTTCTCTCC) | 0.455
30 | CCCTTCTCATGGACCGGTTTTCCCGGTAATCCGTATTTGGC (site CCCTTCTCTGC) | 1.71
31 | CCCTTCTCATGGACCGGTTTTCCCGGTAATCCGTATTTGGC (site CCCTTCTCTTC) | 0.00807
32 | CCGAAGCCATGGACCGGTTTTCCCGGTAATCCGTATTTGTG (site CCGAAGCCTCA) | 0.0182
33 | CCGAATCCATGGACCGGTTTTCCCGGTAATCCGTATTTGCT (site CCGAATCCTAG) | 0.196
34 | CCGAATCCATGGACCGGTTTTCCCGGTAATCCGTATTTGCT (site CGGAATCCTAA) | 0
35 | CCGAATTCATGGACCGGTTTTCCCGGTAATCCGTATTTGGG (site CCGAATTCTCC) | 0
36 | CCGCACACATGGACCGGTTTTCCCGGTAATCCGTATTTGAA (site CCGCACACTTT) | 0.931
37 | CCGCATCCATGGACCGGTTTTCCCGGTAATCCGTATTTGGG (site CCGCATCCTCC) | 0.0031
38 | CCGCCAACATGGACCGGTTTTCCCGGTAATCCGTATTTGAG (site CCGCCAACTCT) | 0.356
39 | CCGCGGGCATGGACCGGTTTTCCCGGTAATCCGTATTTGCC (site CCGCGGGCTGG) | 1.43
40 | CCGCGTGCATGGACCGGTTTTCCCGGTAATCCGTATTTGCG (site CCGCGTGCTCG) | 0.222
41 | CCGCTCTCATGGACCGGTTTTCCCGGTAATCCGTATTTGTT (site CCGCTCTCTAA) | 1.51
42 | CCGCTGCCATGGACCGGTTTTCCCGGTAATCCGTATTTGAA (site CCGCTGCCTTT) | 0.0286
43 | CCGCTTACATGGACCGGTTTTCCCGGTAATCCGTATTTGGA (site CCGCTTACTTC) | 0.539
44 | CCGGACCCATGGACCGGTTTTCCCGGTAATCCGTATTTGTT (site CCGGACCCTAA) | 0.0191
45 | CCGGCACCATGGACCGGTTTTCCCGGTAATCCGTATTTGAT (site CCGGCACCTAT) | 0.00703
46 | CCGGCATCATGGACCGGTTTTCCCGGTAATCCGTATTTGCG (site CCGGCATCTCG) | 0
47 | CCGGCCGCATGGACCGGTTTTCCCGGTAATCCGTATTTGCC (site CCGGCCGCTGG) | 0
48 | CCGGGGCCATGGACCGGTTTTCCCGGTAATCCGTATTTGGT (site CCGGGGCCTAC) | 0.0146
49 | CCGGGTCCATGGACCGGTTTTCCCGGTAATCCGTATTTGCA (site CCAGGTCCTTG) | 0
50 | CCGGGTCCATGGACCGGTTTTCCCGGTAATCCGTATTTGCA (site CCCGGTCCTTG) | 0

Row | Sequence | recombinant UMI read abundance (log10)
51 | CCGGGTCCATGGACCGGTTTTCCCGGTAATCCGTATTTGCA (site CCGGGTCCTTG) | 0.00309
52 | CCGGGTCCATGGACCGGTTTTCCCGGTAATCCGTATTTGCA (site CCTGGTCCTTG) | 0.0157
53 | CCGGTAACATGGACCGGTTTTCCCGGTAATCCGTATTTGCG (site CCGGTAACTCG) | 0.686
54 | CCGTAACCATGGACCGGTTTTCCCGGTAATCCGTATTTGGT (site CCGTAACCTAC) | 0
55 | CCGTAGCCATGGACCGGTTTTCCCGGTAATCCGTATTTGCC (site CCATAGCCTGG) | 0
56 | CCGTAGCCATGGACCGGTTTTCCCGGTAATCCGTATTTGCC (site CCCTAGCCTGG) | 0
57 | CCGTAGCCATGGACCGGTTTTCCCGGTAATCCGTATTTGCC (site CCGTAGCCTGG) | 0
58 | CCGTAGCCATGGACCGGTTTTCCCGGTAATCCGTATTTGCC (site CCTTAGCCTGG) | 0
59 | CCGTATACATGGACCGGTTTTCCCGGTAATCCGTATTTGCT (site CCGTATACTAG) | 1.24
60 | CCGTATACATGGACCGGTTTTCCCGGTAATCCGTATTTGCT (site CCGTCTACTAG) | 0
61 | CCGTATACATGGACCGGTTTTCCCGGTAATCCGTATTTGCT (site CCGTGTACTAG) | 0
62 | CCGTATACATGGACCGGTTTTCCCGGTAATCCGTATTTGCT (site CCGTTTACTAG) | 0
63 | CCGTATGCATGGACCGGTTTTCCCGGTAATCCGTATTTGAA (site CCGTATGCTTT) | 1.14
64 | CCGTCCCCATGGACCGGTTTTCCCGGTAATCCGTATTTGCT (site CCGTCCCCTAG) | 0.00559
65 | CCGTCGACATGGACCGGTTTTCCCGGTAATCCGTATTTGGG (site CAGTCGACTCC) | 0.01
66 | CCGTCGACATGGACCGGTTTTCCCGGTAATCCGTATTTGGG (site CCGTCGACTCC) | 0.0232
67 | CCGTCGACATGGACCGGTTTTCCCGGTAATCCGTATTTGGG (site CGGTCGACTCC) | 0.0251
68 | CCGTCGACATGGACCGGTTTTCCCGGTAATCCGTATTTGGG (site CTGTCGACTCC) | 0
69 | CCGTTAACATGGACCGGTTTTCCCGGTAATCCGTATTTGCT (site CCGTTAACTAG) | 2.18
70 | CCGTTAACATGGACCGGTTTTCCCGGTAATCCGTATTTGCT (site CCGTTCACTAG) | 0
71 | CCGTTAACATGGACCGGTTTTCCCGGTAATCCGTATTTGCT (site CCGTTGACTAG) | 0.00307
72 | CCGTTAACATGGACCGGTTTTCCCGGTAATCCGTATTTGCT (site CCGTTTACTAG) | 0
73 | CCGTTAGCATGGACCGGTTTTCCCGGTAATCCGTATTTGTA (site CCGTTAGCTAA) | 0.0181
74 | CCGTTAGCATGGACCGGTTTTCCCGGTAATCCGTATTTGTA (site CCGTTAGCTCA) | 0.00671
75 | CCGTTAGCATGGACCGGTTTTCCCGGTAATCCGTATTTGTA (site CCGTTAGCTGA) | 0
